Assays:
PC3 = experiment: Cytotoxicity on human cells, PC3 (prostate); format: cell-based; settings: PC-3, human cells, exposed 24 h and 48 h, 0.1 to 25 μM
Method: (§1) […] Dosages on Human cells (Huh7, Caco, MDA-MB 231, HCT 116, PC3, NCl, Fibroblast)
(§2) Cytotoxicity: This method is based on an automated imaging analysis. 4.10^3 cells were cultivated on 96-well plates and thus left for 24 hours so that they may bind, be distributed and proliferate.
(§3) These cells were then exposed for 24 h and 48 h to increasing concentrations of the compounds of the invention, from 0.1 to 25 μM in a final volume of 80 μL of culture medium. The cells are then set with a 4% paraformaldehyde solution and the nuclei are colored with Hoechst 3342 and counted according to automated imaging quantification.
(§4) All the cell lines were cultivated in a DMEM or RPMI (Invitrogen) medium. All these media were completed with antibiotics (penicillin-streptomycin)(Lonza) and 10% by volume of foetal calf serum (Invitrogen). The cells were cultivated at 37° C. with 5% of CO2. The treatments with the molecules to be tested were carried out with increasing concentrations. […] The control experiments were also conducted by using suitable dilutions of DMSO (maximum 1% DMSO). Cell viability was determined by measuring the reduction of MTS as described in the article of Ribas J, Boix J. (2004). Cell differentiation caspase inhibition and macromolecular synthesis blockage but not BCL-2 or BCL-XL proteins protect SH-SY5Y cells from apoptosis triggered by two CDK inhibitory drugs. Exp. Cell Res., 295: 9-24.

fibroblast = experiment: Cytotoxicity on human cells, fibroblast; format: cell-based; settings: exposed 24 h and 48 h, 0.1 to 25 μM
Method: as §1, §2, §3, §4

CDK5 = target: T1, CDK5 (Homo sapiens, UniProt Q00535); experiment: CDK5 kinase inhibition (histone H1, [γ-33P] ATP, buffer C); format: biochemical; settings: 15 μM ATP, 30° C., recombinant; read-out: IC50 Kinases CDK5
T1 construct: made in house
Method: (§5) The activities for inhibiting protein kinases of the compounds of the invention are tested according to the following general procedure:
Buffer C: 60 mM β-glycerophosphate, 15 mM p-nitrophenyl-phosphate, 25 mM Mops (pH 7.2), 5 mM EGTA, 15 mM MgCl2, 1 mM DTT, 1 mM of sodium vanadate
(§6) The kinase activities are dosed in buffers A or C, at 30° C., at a final concentration of ATP of 15 μM. The values of the blanks were subtracted and the activities are expressed as a % of the maximum activity, i.e. in the absence of inhibitors. The controls were carried out with suitable dilutions of DMSO.
CDK5 (humane, recombinant) was prepared as described earlier (Leclerc, S.; Garnier, M.; Hoessel, R.; Marko, D.; Bibb, J. A.; Snyder, G. L.; Greengard, P.; Biernat, J.; Mandelkow, E.-M.; Eisenbrand, G.; Meijer, L. Indirubins inhibit glycogen synthase kinase-3β and CDK5/p25, two kinases involved in abnormal tau phosphorylation in Alzheimer's disease—A property common to most CDK inhibitors? J. Biol. Chem. 2001, 276, 251-260; Bach S, Knockaert M, Reinhardt J, Lozach O, Schmitt S, Baratte B et al. (2005). Roscovitine targets, protein kinases and pyridoxal kinase. J. Biol Chem 280: 31208-31219). Its kinase activity was analyzed in the buffer C, with 1 mg of histone H1/mL, in the presence of 15 μM of [γ-^33P] ATP (3,000 Ci/mmol; 10 mCi/mL) in a final volume of 30 μl. After 30 mins of incubation at 30° C., 25 μl of supernatant aliquots were deposited on 2.5×3 cm pieces of phosphocellulose Whatman P81 paper, and after 20 seconds, the filters were washed five times (for at least 5 minutes every time) in a solution of 10 mL phosphoric acid/liter of water. The wet filters were counted in the presence of 1 mL of ACS scintillator fluid (Amersham).

Huh7 = experiment: Cytotoxicity on human cells, Huh7 (liver); format: cell-based; settings: Huh-7, human cells, exposed 24 h and 48 h, 0.1 to 25 μM
Method: as §1, §2, §3, §4

NCI = experiment: Cytotoxicity on human cells, NCI (lung); format: cell-based; settings: exposed 24 h and 48 h, 0.1 to 25 μM
Method: as §1, §2, §3, §4

MDA-MB 231 = experiment: Cytotoxicity on human cells, MDA-MB 231 (breast); format: cell-based; settings: MDA-MB-231, human cells, exposed 24 h and 48 h, 0.1 to 25 μM
Method: as §1, §2, §3, §4

Caco = experiment: Cytotoxicity on human cells, Caco (colon); format: cell-based; settings: exposed 24 h and 48 h, 0.1 to 25 μM
Method: as §1, §2, §3, §4

DYRK1A = DYRK1A (Homo sapiens, UniProt Q13627); experiment: DYRK1A kinase inhibition (Woodtide substrate, buffer A); format: biochemical; settings: 15 μM ATP, 30° C., recombinant GST fusion; read-out: IC50 Kinases DYRK1A
Method: as §5
(§7) Buffer A: 10 mM MgCl2, 1 mM EGTA, 1 mM DTT, 25 mM Tris-HCl pH 7.5 and 50 μg heparin/mL.
as §6

HCT 116 = experiment: Cytotoxicity on human cells, HCT 116 (colon); format: cell-based; settings: exposed 24 h and 48 h, 0.1 to 25 μM
Method: as §1, §2, §3, §4

GSK-3αβ = GSK-3αβ kinase inhibition (GS-1 substrate, buffer A); format: biochemical; settings: 15 μM ATP, 30° C., native, pig brain; read-out: IC50 Kinases GSK3
Method: as §5, §7, §6
GSK-3αβ (from pig brain, native) was assayed by using a specific substrate of GSK-3 (GS-1: […]pEDEEE)(Sp represents a phosphorylated serine) (Primot, A., Baratte, B., Gompel, M., Borgne, A., Liabeuf, S., Romette, J. L., Costantini, F. and Meijer, L., 2000. Purification of GSK-3 by affinity chromatography on immobilized axin. Protein Expr. & Purif. 20 (3), 394-404). GS-1 was synthesized by Millegen (Labège, France). Its kinase activity was analyzed in the buffer A, with 1 mg of histone H1/mL, in the presence of 15 μM of [γ-^33P] ATP (3,000 Ci/mmol; 10 mCi/mL) in a final volume of 30 μl. After 30 mins of incubation at 30° C., 25 μl of supernatant aliquots were deposited on 2.5×3 cm pieces of phosphocellulose Whatman P81papier, and after 20 seconds, the filters were washed five times (for at least 5 minutes every time) in a solution of 10 mL of phosphoric acid/liter of water. The wet filters were counted in the presence of 1 mL of ACS scintillator fluid (Amersham).

T1 sequence (Q00535 whole entry): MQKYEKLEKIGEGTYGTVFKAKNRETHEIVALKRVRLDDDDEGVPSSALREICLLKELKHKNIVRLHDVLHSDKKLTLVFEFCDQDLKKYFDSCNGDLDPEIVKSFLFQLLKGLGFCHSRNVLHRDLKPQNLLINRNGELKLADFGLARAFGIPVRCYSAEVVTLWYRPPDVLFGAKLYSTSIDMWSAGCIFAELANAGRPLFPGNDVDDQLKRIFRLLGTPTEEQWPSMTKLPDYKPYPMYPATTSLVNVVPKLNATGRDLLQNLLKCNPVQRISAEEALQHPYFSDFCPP
T1 sequence (Q15078 99-307 partner limits assumed): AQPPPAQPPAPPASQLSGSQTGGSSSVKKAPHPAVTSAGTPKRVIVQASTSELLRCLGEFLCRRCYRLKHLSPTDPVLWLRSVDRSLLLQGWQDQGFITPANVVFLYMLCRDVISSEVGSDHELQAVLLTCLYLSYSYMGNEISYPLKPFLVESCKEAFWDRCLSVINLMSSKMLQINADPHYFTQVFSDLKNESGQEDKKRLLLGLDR

| SMILES | IC50 (PC3) [µM] | IC50 (fibroblast) [µM] | IC50 (CDK5) [µM] | IC50 (Huh7) [µM] | IC50 (NCI) [µM] | melting point [°C] | IC50 (MDA-MB 231) [µM] | IC50 (Caco) [µM] | IC50 (DYRK1A) [µM] | IC50 (HCT 116) [µM] | IC50 (GSK-3αβ) [µM] |
| --- | --- | --- | --- | --- | --- | --- | --- | --- | --- | --- | --- |
| Oc1ccc(Nc2ncc3ncc(Cl)cc3n2)cc1 [Compound 59, 7-Chloro-2-(4-hydroxyphenylamino)-pyrido[3,2-d]pyrimidine] | 12 | 5 | 1.1 | 12 | 10 | 232 to 234 | 6 | > 25 | > 10 | 2 | > 10 |
| Oc1ccc(Nc2ncc3ncc(-c4ccccc4O)cc3n2)cc1 [Compound 60, 2-(4-Hydroxyphenylamino)-7-(2-hydroxyphenyl)-pyrido[3,2-d]pyrimidine] | 20 | 5 | 3.7 | 6 | 5 | 262 to 264 | 10 | 4 | > 10 | 8 | > 10 |
| Oc1ccc(Nc2ncc3ncc(-c4cccc(O)c4)cc3n2)cc1 [Compound 61, 2-(4-Hydroxyphenylamino)-7-(3-hydroxyphenyl)-pyrido[3,2-d]pyrimidine] | 7 | 2 | 0.71 | 10 | 4 | > 268 | 9 | 12 | > 10 | 12 | 4.5 |
| Oc1ccc(Nc2ncc3ncc(-c4ccc(O)cc4)cc3n2)cc1 [Compound 62, 2-(4-Hydroxyphenylamino)-7-(4-hydroxyphenyl)-pyrido[3,2-d]pyrimidine] | 15 | 5 | 0.84 | 12 | 4 | > 268 | 10 | 15 | > 10 | 12 | 7.1 |
| COc1ccc(Nc2cnc3c(NCc4ccccc4)nc(NCCO)nc3c2)cc1OC [Compound 85, 4-Benzylamino-7-(3,4-dimethoxyphenylamino)-2-(2-hydroxyethylamino)-pyrido[3,2-d]pyrimidine] | 4 | 5 | > 10 | 1.5 | 2 | 149 to 150 | 15 | 4 | > 10 | 4 | > 10 |
| CC(=O)c1ccc(Nc2cnc3c(NCc4ccccc4)nc(NCCO)nc3c2)cc1 [Compound 86, 4-Benzylamino-7-(4-acetylphenylamino)-2-(2-hydroxyethylamino)-pyrido[3,2-d]pyrimidine] | 3 | 5 | > 10 | 2 | 2 | 125 to 126 | 15 | 3 | > 10 | 1 | > 10 |
